Experimental findings from patent US9340577B2, “HLA binding motifs and peptides and their uses” (priority 1992, dated 2016) are described below.

No end group written: not given here.

Common to all, as to type: binding
One experiment has as its target HLA-A1 (A*0101) (Homo sapiens, UniProt P04439, A114D/A174V/A182V/D101N/D185E/E176A/E190D/L180R/Q94H/R68K/S129P/T187R/V100A/V91M/W191G). In words: biochemical.
The next experiment addresses A2.1 HLA molecules (Homo sapiens, UniProt P04439, D140Y/D185E/D98H/E176V/E277Q/G131W/G231S/I119V/I121R/I166T/I218V/L300P/L318F/N151K/N90K/P208A/P217A/Q86G/Q94H/R138H/R169H/T345S). Further details: A*0201 / A2.1 Binding / A2 Bind. / A2 / A2.1 (binding capacity): scale not given here.
The next experiment has as its target HLA-A3.2 (A*0301) (Homo sapiens, UniProt P04439). Kind of experiment: biochemical.
The target of another experiment is A31 (A*3101) (Homo sapiens, UniProt P04439, A270S/D185E/E176V/E277Q/F33T/G231S/G80R/H175R/I121M/I218V/I322F/K168Q/L300P/L318F/M331R/P217A/Q94H/R138Q/T323A/T345S/T97I/V358M). In words: biochemical.
Another experiment deals with A*3301 (Homo sapiens, UniProt P04439, A270S/D185E/E176V/E277Q/E87N/F33T/G231S/H175R/I121M/I218V/I322F/K168Q/K210R/L300P/L318F/M331R/P217A/Q86R/Q94H/R138Q/T323A/T345S/T97I/V358M/Y195H). In words: biochemical.
The next experiment concerns the target A*6801 (Homo sapiens, UniProt P04439, A269V/D185E/E176V/E277Q/E87N/F33Y/G231S/I121M/I166T/I218V/L180W/L300P/L318F/N151K/P208A/P217A/Q86R/R169H/T345S). Kind of experiment: biochemical.
A further experiment addresses HLA-A*0201 (HLA-A2.1) (Homo sapiens, UniProt P04439, D140Y/D185E/D98H/E176V/E277Q/G131W/G231S/I119V/I121R/I166T/I218V/L300P/L318F/N151K/N90K/P208A/P217A/Q86G/Q94H/R138H/R169H/T345S). In words: biochemical.
Another experiment concerns the target A*0202 (Homo sapiens, UniProt P04439, D140Y/D185E/D98H/E176V/E277Q/G131W/G231S/I119L/I121R/I166T/I218V/L180W/L300P/L318F/N151K/N90K/P208A/P217A/Q67R/Q86G/Q94H/R138H/R169H/T345S). In words: biochemical.
Another experiment deals with A*0203 (Homo sapiens, UniProt P04439, A173T/D140Y/D185E/D98H/E277Q/G131W/G231S/I119V/I121R/I166T/I218V/L180W/L300P/L318F/N151K/N90K/P208A/P217A/Q86G/Q94H/R138H/R169H/T345S). Kind of experiment: biochemical.
The target of the next experiment is A*0206 (Homo sapiens, UniProt P04439, D140Y/D185E/D98H/E176V/E277Q/F33Y/G131W/G231S/I119V/I121R/I166T/I218V/L300P/L318F/N151K/N90K/P208A/P217A/Q86G/Q94H/R138H/R169H/T345S). In words: biochemical.
A further experiment deals with A*6802 (Homo sapiens, UniProt P04439, A269V/D140Y/D185E/E176V/E277Q/E87N/F33Y/G231S/I121R/I166T/I218V/L180W/L300P/L318F/N151K/P208A/P217A/Q86R/R138H/R169H/S129P/T345S/V36M). In words: biochemical.
The target of another experiment is HLA-A11 (A*1101) (Homo sapiens, UniProt P04439, A114D/D185E/E176A/F33Y/L180Q/S129P/T187R). In words: biochemical.

For the sequence ALFLGFLGA, the A1 on HLA-A1 (A*0101) is reported as 0.0945. In addition, the “A2 Bind.” value at A2.1 HLA molecules worked out at 0.0945.

Sequence ALFLGFLGAA came in with an A1 on HLA-A1 (A*0101) of 0.4950. Moreover, at A2.1 HLA molecules, the “A2 Bind.” value turned out to be 0.4950.

As for ALLYKLDIV, the A1 in the experiment with HLA-A1 (A*0101) is 0.0362. In addition, the “A2 Bind.” value in the experiment with A2.1 HLA molecules came out at 0.0362.

ALTVVWLLV returned an A1 with HLA-A1 (A*0101) of 0.0390. For the same sequence, the “A2 Bind.” value in the experiment with A2.1 HLA molecules is on record as 0.0390.

As for AVLSIVNRV, the A1 at HLA-A1 (A*0101) turned out to be 0.0132. Also, the “A2 Bind.” value on A2.1 HLA molecules is given as 0.0132.

For orientation: IC50 means the midpoint of a concentration-inhibition curve. For CVSHRGLYY [Peptide 88.0401], the IC50 was 27 nM at HLA-A3.2 (A*0301); greater than 20 µM against A31 (A*3101); greater than 20 µM on A*3301; greater than 20 µM against A*6801; 108 nM against HLA-A1 (A*0101).

As to RFEDPTRRPY [Peptide 78.0005], inhibition against HLA-A1 (A*0101) was half-maximal at 19200 nM (IC50).

Turning to TLFNVTRNDV [Peptide 9013.0230], the half-maximal inhibitory concentration (IC50) on HLA-A*0201 (HLA-A2.1) is 1480 nM; against A*0202, 69 nM; against A*0203 it was 25 nM; at A*0206, 4840 nM; against A*6802 it was greater than 20000 nM.

For the sequence TLKLTIEST [Peptide 9013.0010], the concentration for half-maximal inhibition (IC50) is 18300 nM at HLA-A*0201 (HLA-A2.1); 80 nM against A*0202; 24 nM at A*0203; greater than 20000 nM on A*0206; greater than 20000 nM on A*6802.

In the case of TLNNSGSYT [Peptide 9013.0065], the half-maximal inhibitory concentration (IC50) at HLA-A*0201 (HLA-A2.1) was greater than 20000 nM; against A*0202 it was 237 nM; at A*0203, 233 nM; on A*0206 it was greater than 20000 nM; on A*6802 it was greater than 20000 nM.

Take TLQATPGPA [Peptide 9013.0028]: the IC50 is 19400 nM against HLA-A*0201 (HLA-A2.1); 1980 nM on A*0202; 29 nM at A*0203; greater than 20000 nM against A*0206; greater than 20000 nM against A*6802.

Turning to TLQDVSLEV [Peptide 1578.45], the half-inhibitory concentration (IC50) against HLA-A*0201 (HLA-A2.1) came out at 701 nM; against A*0202 it was 18 nM; at A*0203, 26 nM; against A*0206, 2070 nM; on A*6802, 2680 nM.

As for TLTTITVYA [Peptide 9013.0069], the IC50 against HLA-A*0201 (HLA-A2.1) amounted to 14 nM; against A*0202 it was 0.75 nM; against A*0203, 2.6 nM; against A*0206, 666 nM; at A*6802, 5 nM.

As for TVNNSGSYV [Peptide 9013.0064], the half-inhibitory concentration (IC50) is 16600 nM against HLA-A*0201 (HLA-A2.1); 310 nM at A*0202; 39 nM at A*0203; greater than 20000 nM against A*0206; 44 nM against A*6802.

In the case of TVTTITVYV [Peptide 9013.0068], the half-maximal inhibitory concentration (IC50) was 102 nM against HLA-A*0201 (HLA-A2.1); 12 nM at A*0202; 58 nM at A*0203; 95 nM against A*0206; 3 nM against A*6802.

For VADKALKFY [Peptide E6-69], the “binding to HLA-A3.2 (in words)” value on HLA-A3.2 (A*0301) (HPV 16 E6/E7 9-mers) is recorded as “bound”. Also, on HLA-A11 (A*1101), the “binding class for HLA-A11.2” value is “weak affinity” and the “binding to HLA-A11.2 (in words)” value is “bound”. Besides, on HLA-A1 (A*0101), the “binding to HLA-A1 (in words)” value was “bound”.

Take VIKSDLVNEEV [Peptide 9013.0278]: the 50% inhibitory concentration (IC50) was greater than 20000 nM at HLA-A*0201 (HLA-A2.1); 57 nM on A*0202; 1730 nM at A*0203; greater than 20000 nM on A*0206; greater than 20000 nM against A*6802.

For VLAEAMAAA [Peptide 1516.12], the half-inhibitory concentration (IC50) stood at 17 nM against HLA-A*0201 (HLA-A2.1); 1.9 nM against A*0202; 3.2 nM on A*0203; 16 nM at A*0206; 639 nM on A*6802.

As to VLAEAMGQV [Peptide 1539.05], the IC50 worked out at 55 nM against HLA-A*0201 (HLA-A2.1); 1.7 nM against A*0202; 3.2 nM against A*0203; 75 nM at A*0206; 168 nM at A*6802.

For VLAEAMSHT [Peptide 1539.06], the IC50 against HLA-A*0201 (HLA-A2.1) is 243 nM; on A*0202, 16 nM; at A*0203, 7.5 nM; against A*0206, 975 nM; against A*6802 it was greater than 20000 nM.

As to VLAEAMSHV [Peptide 1516.08], the IC50 was 29 nM at HLA-A*0201 (HLA-A2.1); 1.9 nM against A*0202; 5.5 nM on A*0203; 89 nM on A*0206; 304 nM on A*6802.

As to VLAEAMSRV [Peptide 1516.10], the IC50 turned out to be 40 nM against HLA-A*0201 (HLA-A2.1); 2.6 nM on A*0202; 3.7 nM at A*0203; 75 nM against A*0206; 487 nM at A*6802.

Take VLEGKEVLLLV [Peptide 9013.0273]: the half-maximal inhibitory concentration (IC50) against HLA-A*0201 (HLA-A2.1) was 1840 nM; on A*0202, 32 nM; at A*0203, 272 nM; on A*0206 it was 4610 nM; on A*6802, greater than 20000 nM.

As to VLKSDLVNEEA [Peptide 9013.0279], the 50% inhibitory concentration (IC50) on HLA-A*0201 (HLA-A2.1) is greater than 20000 nM; against A*0202, 14 nM; against A*0203 it was 3420 nM; on A*0206, greater than 20000 nM; at A*6802, greater than 20000 nM.

On to VQWAFDNEL [Peptide 86.0182], for which the IC50 against HLA-A*0201 (HLA-A2.1) was 3230 nM; against A*0202, 319 nM; on A*0203, 449 nM; at A*0206 it was 256 nM; at A*6802, greater than 20000 nM.

Turning to WALTVVWLL, the A1 with HLA-A1 (A*0101) was determined as 0.0415.

As for YLCGIQNSVSA [Peptide 9013.0338], the concentration for half-maximal inhibition (IC50) against HLA-A*0201 (HLA-A2.1) came to 208 nM; against A*0202, 21 nM; against A*0203, 180 nM; at A*0206, 513 nM; on A*6802 it was 9160 nM.

For the sequence YLWWVNNQSV [Peptide 9013.0197], the 50% inhibitory concentration (IC50) was 8.9 nM against HLA-A*0201 (HLA-A2.1); 1.2 nM on A*0202; 4.2 nM against A*0203; 65 nM on A*0206; 17 nM against A*6802.

For the sequence YLYYRPGVNL [Peptide 9013.0209], the IC50 against HLA-A*0201 (HLA-A2.1) came to 54 nM; on A*0202, 2.2 nM; at A*0203, 2.8 nM; on A*0206, 940 nM; against A*6802, 953 nM.

In the case of YSDIRELRHY [Peptide 86.0055], it took 9.9 nM to reach half-maximal inhibition at HLA-A1 (A*0101) (IC50).

For the sequence YTCGIQNSV [Peptide 9013.0096], the IC50 on HLA-A*0201 (HLA-A2.1) is 1970 nM; against A*0202 it was 71 nM; against A*0203 it was 310 nM; at A*0206, 342 nM; against A*6802, 140 nM.

For the sequence YTNWGEIYI [Peptide 1578.49], the IC50 turned out to be 293 nM against HLA-A*0201 (HLA-A2.1); 10 nM on A*0202; 82 nM at A*0203; 700 nM against A*0206; 24 nM against A*6802.

Regarding YTNWSEIYI [Peptide 1578.56], the IC50 on HLA-A*0201 (HLA-A2.1) is 61 nM; against A*0202, 3.6 nM; on A*0203, 47 nM; against A*0206, 216 nM; against A*6802, 5 nM.

The sequence YVAWKYIYY [Peptide 88.0433] gave a half-inhibitory concentration (IC50) on HLA-A1 (A*0101) of 310 nM.

Take YVIGTQQAV [Peptide 9013.0024]: the IC50 against HLA-A*0201 (HLA-A2.1) worked out at 160 nM; at A*0202, 3.2 nM; against A*0203, 6.2 nM; on A*0206, 84 nM; at A*6802, 3 nM.

For YVSGANLNL [Peptide 9013.0100], the half-maximal inhibitory concentration (IC50) was 6160 nM on HLA-A*0201 (HLA-A2.1); 13 nM against A*0202; 75 nM against A*0203; 230 nM against A*0206; 374 nM against A*6802.
